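Method: 48-hour compound exposure of cells in 96-well plates, five concentrations, linear interpolation of endpoints. TGI: total growth inhibition.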
Legend:
Test in all cases: NCI-60 cell line screen, 48 h
[1] = test system: A498 renal
[2] = test system: MALME-3M melanoma
[3] = test system: BT-549 breast
[4] = test system: SK-MEL-28 melanoma
[5] = test system: TK-10 renal
[6] = test system: UACC-62 melanoma
[7] = test system: SNB-19 CNS
[8] = test system: CCRF-CEM leukemia
[9] = test system: MDA-N
[10] = test system: K-562 leukemia
[11] = test system: SN12C renal
[12] = test system: COLO 205 colon
[13] = test system: HS 578T breast
[14] = test system: MOLT-4 leukemia
[15] = test system: SK-MEL-2 melanoma
[16] = test system: NCI/ADR-RES ovarian
[17] = test system: LOX IMVI melanoma
[18] = test system: HOP-92 NSCLC
[19] = test system: SF-268 CNS
[20] = test system: SK-OV-3 ovarian
[21] = test system: SF-539 CNS
[22] = test system: EKVX NSCLC
[23] = test system: U251 CNS
[24] = test system: MDA-MB-231 breast
[25] = test system: HCT-116 colon
[26] = test system: ACHN renal
[27] = test system: UO-31 renal
[28] = test system: KM12 colon
[29] = test system: A549 NSCLC
[30] = test system: SW-620 colon
[31] = test system: RXF 393 renal
[32] = test system: NCI-H460 lung
[33] = test system: HCC-2998 colon
[34] = test system: UACC-257 melanoma
[35] = test system: SF-295 CNS
[36] = test system: T-47D breast
[37] = test system: SNB-75 CNS
[38] = test system: NCI-H23 lung
[39] = test system: SR leukemia
[40] = test system: NCI-H522 lung
[41] = test system: CAKI-1 renal
[42] = test system: HL-60(TB) leukemia
[43] = test system: OVCAR-8 ovarian
[44] = test system: MDA-MB-435
[45] = test system: HCT-15 colon
[46] = test system: NCI-H226 lung
[47] = test system: IGROV1 ovarian
[48] = test system: 786-0 renal
[49] = test system: MCF7 breast
[50] = test system: DU-145 prostate
[51] = test system: PC-3 prostate
[52] = test system: OVCAR-5 ovarian
[53] = test system: M14 melanoma
[54] = test system: HT29 colon
[55] = test system: HOP-62 NSCLC
[56] = test system: OVCAR-4 ovarian
[57] = test system: RPMI-8226 leukemia
[58] = test system: OVCAR-3 ovarian
[59] = test system: SK-MEL-5 melanoma

Measured: TGI

Cc1ccc(C)c(COCCOCn2cc(N3CCOCC3)c(=O)[nH]c2=O)c1
not listed: [54] | [55] | [56] | [57] | [58] | [59]
> 100 µM: all other assays above

CN1c2ccccc2C2=C(c3ccccc3)CC[C@@H](C(=O)N3C4CC5CC[C@@]4(CS3(=O)=O)C5(C)C)[C@@H]21 (stereo partly drawn)
not listed: [15] | [31] | [33] | [42]
> 100 µM: all other assays above

CCOC(=O)c1csc(NC(=O)CCN2CCCC2)n1
not listed: [1] | [2] | [3] | [11] | [13] | [19] | [25] | [40] | [48]
> 100 µM: all other assays above

O=c1c2cc([N+](=O)[O-])ccc2oc2nc3n(c(=O)c12)CCCS3
not listed: [17] | [42] | [43] | [54]
> 100 µM: all other assays above

— PubChem BioAssay (NCI)
